Read-outs that look alike come from different tables or passages of the source.
What was measured:
HT-29 cells = assay: CellTiter-Glo luminescent cell viability assay with HT-29 cells (72h incubation); assay type: cell-based, human; details: Homo sapiens, HT-29, HT29 cells, read-out: CTG HT29
In short: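 400 cells per well in DMEM/10% FCS were dosed after 24 h and kept 72 h at 37 °C, 5% CO2. ATP-based luminescence (CellTiter-Glo) normalized to DMSO and 10 μM staurosporine controls; IC50 by dose-response fit.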

[1] = biological target: T1, β5 subunit of the human immunoproteasome (IPS) (Homo sapiens, UniProt P28062); assay: β5 inhibition assay, human immunoproteasome (Suc-LLVY-AMC); assay type: biochemical; details: IC50 class, Suc-LLVY-AMC substrate
T1 construct: purchased Boston Biochem E-370
In short: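 Human immunoproteasome (1 nM final) was preincubated 10 min at RT with compound in 100 mM HEPES pH 7.5, 50 mM NaCl, 0.02% SDS, 1 mM DTT. Suc-LLVY-AMC (22.6 μM final) was then added for 4 h at RT in the dark. After stopping with 1 μM bortezomib, AMC fluorescence was read (ex 355/em 460 nm).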

[2] = system: A549 (human lung carcinoma cell line); assay: Glo assay of A549 cells (Table 3; ProteasomeGlo plating scheme); assay type: cell-based; details: Homo sapiens
In short: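 Luminescent read-out of cellular chymotrypsin-like proteasome activity: cells exposed to compound 105 min at 37° C., 5% CO2, then given Suc-LLVY-Glo reagent, shaken 2-5 min and kept dark 10-15 min before reading. Values are IC50 [nM].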

[3] = A549 cells, read-out: PGLo A549

IC50 (HT-29 cells) [nM]	IC50 [1] [nM]	IC50 [2, 3] [nM]	SMILES	IC50 ([2]; A549, read-out: PGLo A549 [nM]) [nM]
< 100	< 100	1000 to 5000	Cc1ccc2cc1CNC(=O)[C@H](CCc1ccccc1)NC(=O)[C@H](NC(=O)OCc1ccccc1)CC(=O)N1CCC[C@H](CCO2)C1 [Compound 291, benzyl ((13R,9S,12R)-5^4-methyl-8,11,14-trioxo-9-phenethyl-4-oxa-7,10-diaza-1(3,1)-piperidina-5(1,3)-benzenacyclotetradecaphane-12-yl)carbamate]	
< 100	< 100	< 100	CC(=O)N[C@H]1CC(=O)N2CCCC(CCOc3ccc(C)c(c3)CNC(=O)C(c3cnn(Cc4ccccc4)c3)NC1=O)C2 (stereo partly drawn) [Compound 565, N-((12S)-9-(1-benzyl-1H-pyrazol-4-yl)-5^4-methyl-8,11,14-trioxo-4-oxa-7,10-diaza-1(3,1)-piperidina-5(1,3)-benzenacyclotetradecaphane-12-yl)acetamide]	
< 100	< 100	< 100	Cc1ccc2cc1CNC(=O)[C@H](CCc1ccccc1)NC(=O)[C@@H](NC(=O)OCc1ccccc1)CC(=O)N1CCC[C@H](CCO2)C1 [Compound 292, benzyl ((13R,9S,12S)-5^4-methyl-8,11,14-trioxo-9-phenethyl-4-oxa-7,10-diaza-1(3,1)-piperidina-5(1,3)-benzenacyclotetradecaphane-12-yl)carbamate]	
< 100	< 100	< 100	CCC(C(=O)N[C@H]1CC(=O)N2CCCC(CCOc3ccc(C)c(c3)CNC(=O)[C@H](CCc3ccccc3)NC1=O)C2)c1ccc(OC)c(OC)c1 (stereo partly drawn) [Compound 64, 2-(3,4-dimethoxyphenyl)-N-((9S,12S)-5^4-methyl-8,11,14-trioxo-9-phenethyl-4-oxa-7,10-diaza-1(3,1)-piperidina-5(1,3)-benzenacyclotetradecaphane-12-yl)butanamide]	

SMILES	IC50 (HT-29 cells) [nM]	IC50 [1] [nM]	IC50 [2, 3] [nM]	IC50 ([2]; A549, read-out: PGLo A549 [nM]) [nM]
Cc1ccc2cc1CNC(=O)[C@H](CCc1ccccc1)NC(=O)[C@@H](NC(=O)OCC1(C)COC1)CC(=O)N1CCCC(CCO2)C1 (stereo partly drawn) [Compound 293, (3-methyloxetan-3-yl)methyl ((9S,12S)-5^4-methyl-8,11,14-trioxo-9-phenethyl-4-oxa-7,10-diaza-1(3,1)-piperidina-5(1,3)-benzenacyclotetradecaphane-12-yl)carbamate]	< 100	< 100		< 100

Source: US20240415819A1, “MACROCYCLIC COMPOUNDS AS PROTEASOME SUBUNIT BETA TYPE-5 INHIBITORS” (Lead Discovery Center GmbH, priority 2021, published 2024)
